US20260070945A1, “MACROCYCLIC IMMUNOMODULATORS” (Bristol-Myers Squibb Company, priority 2022, published 2026)
Like-named read-outs stand apart in the source and are kept apart here. Where a SMILES comes first, the peptide text is derived from it. Bridges are numbered along the chain shown (N, C = ends). [ ]: non-standard residue; d: D form. The star is where a group is joined. ξ: configuration not given here. Phe(4-CONH2) = NC(=O)c1ccc(C[C@H](N)C(=O)O)cc1; Phe(4-COOH) = N[C@@H](Cc1ccc(C(=O)O)cc1)C(=O)O; Bip = N[C@@H](Cc1ccc(-c2ccccc2)cc1)C(=O)O; Phe(3-Me) = Cc1cccc(C[C@H](N)C(=O)O)c1; Cha = N[C@@H](CC1CCCCC1)C(=O)O; Thr(3ξ) = CC(O)[C@H](N)C(=O)O; 12Ado = NCCCCCCCCCCCC(=O)O; hSer = N[C@@H](CCO)C(=O)O; Carboxymethyl = O=C(O)C*; NMeA = CN[C@@H](C)C(=O)O; Orn = NCCC[C@H](N)C(=O)O; Aun = NCCCCCCCCCCC(=O)O; Dab = NCC[C@H](N)C(=O)O; AEEA = NCCOCCOCC(=O)O

Target: T1, PD-1/PD-L1 interaction (PE-labeled human PD-L1-Ig binding to Jurkat cell line over-expressing human PD-1) (Homo sapiens, UniProt Q15116)
T1 construct: expressed in transfected cells; host or cells: Jurkat
T1 sequence (Q15116 25-288): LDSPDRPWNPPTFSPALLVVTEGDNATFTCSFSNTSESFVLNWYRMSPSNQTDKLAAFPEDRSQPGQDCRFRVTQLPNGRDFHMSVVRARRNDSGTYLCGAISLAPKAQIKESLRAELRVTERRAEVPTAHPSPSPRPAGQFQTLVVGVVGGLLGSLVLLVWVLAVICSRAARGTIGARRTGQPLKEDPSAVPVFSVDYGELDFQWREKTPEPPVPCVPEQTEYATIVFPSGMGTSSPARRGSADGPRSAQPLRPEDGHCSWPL
Test: Jurkat-PD-1 Cell Binding High-Content Screening Assay (CBA)
Procedure, shortened: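 Compound is added first to the PD-1-expressing Jurkat cells and held 2 h at 37 °C in serum-containing DMEM. The fluorescent PD-L1 fusion follows at 20 nM final for 1 h. Fixed, Hoechst-stained cells are then imaged for bound label.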

[1] = Jurkat-hPD-1 cells, PE-labeled PD-L1-Ig 20 nM final; read-out: Jurkat HPD1 PDL1 IC50

Question: Which IC50 [1] does the source give for `CC(=O)NCCCC[C@@H]1NC(=O)[C@H](Cc2ccc(-c3ccccc3)cc2)NC(=O)[C@H](Cc2ccc(O)cc2)NC(=O)[C@H](Cc2cccc(C)c2)NC(=O)[C@H](CC(=O)O)NC(=O)[C@H](Cc2ccc(OCC(=O)O)cc2)NC(=O)[C@H](Cc2ccc(OCC(=O)O)cc2)NC(=O)CSC[C@@H](C(=O)NCCOCCOCC(=O)NCCCCCCCCCCC(=O)O)NC(=O)[C@H](CCO)NC(=O)[C@H](C(C)C)NC(=O)[C@H](CC2CCCCC2)NC(=O)[C@H](CCN)NC(=O)[C@@H](CC(C)C)NC(=O)[C@H](C)N(C)C1=O` [Example 2422] ({CH2CO}-Y(Carboxymethyl)Y(Carboxymethyl)D[Phe(3-Me)]Y[Bip]K(Ac)[NMeA][dL][Dab][Cha]V[hSer]C[AEEA][Aun]-OH; thioether N-14) here?
Answer: Its IC50 is 0.0249 µM.

Question: How did the IC50 [1] turn out when `Cc1cccc(C[C@@H]2NC(=O)[C@H](CC(=O)O)NC(=O)[C@H](Cc3ccc(OCC(=O)O)cc3)NC(=O)[C@H](Cc3ccc(C(N)=O)cc3)NC(=O)CSC[C@@H](C(=O)N[C@H](CC(N)=O)C(=O)NCCOCCOCC(=O)NCCCCCCCCCCC(=O)O)NC(=O)[C@H](CO)NC(=O)[C@H](C(C)C)NC(=O)[C@H](CC3CCCCC3)NC(=O)[C@H](CCN)NC(=O)[C@@H](CC(C)C)NC(=O)[C@H](C)N(C)C(=O)[C@H](Cc3ccc(O)cc3)NC(=O)[C@H](Cc3ccc(-c4ccccc4)cc3)NC(=O)[C@H](Cc3ccc(OCC(=O)O)cc3)NC2=O)c1` [Example 2423] ({CH2CO}-[Phe(4-CONH2)]Y(Carboxymethyl)D[Phe(3-Me)]Y(Carboxymethyl)[Bip]Y[NMeA][dL][Dab][Cha]VSC[dN][AEEA][Aun]-OH; thioether N-14) was run?
Answer: The IC50 was 0.0142 µM.

Question: `Cc1cccc(C[C@@H]2NC(=O)[C@H](CC(=O)O)NC(=O)[C@H](Cc3ccc(C(=O)O)cc3)NC(=O)[C@H](C(C)O)NC(=O)CSC[C@@H](C(=O)N[C@@H](CCCN)C(=O)N[C@@H](CO)C(=O)NCCCCCCCCCCCC(=O)O)NC(=O)[C@H](CO)NC(=O)[C@H](CCCCN)NC(=O)[C@H](CC3CCCCC3)NC(=O)[C@H](CCN)NC(=O)[C@@H](CC(C)C)NC(=O)[C@H](C)N(C)C(=O)[C@H](Cc3ccc(OCC(=O)O)cc3)NC(=O)[C@H](Cc3ccc(-c4ccccc4)cc3)NC(=O)[C@H](Cc3ccc(OCC(=O)O)cc3)NC2=O)c1` (stereo partly drawn) [Example 2424] ({CH2CO}-[Thr(3ξ)][Phe(4-COOH)]D[Phe(3-Me)]Y(Carboxymethyl)[Bip]Y(Carboxymethyl)[NMeA][dL][Dab][Cha]KSC[Orn]S[12Ado]-OH; thioether N-14) was tested. Which IC50 [1] did it give?
Answer: Its IC50 is 0.108 µM.

Question: How did the IC50 [1] turn out when `Cc1cccc(C[C@@H]2NC(=O)[C@H](CC(=O)O)NC(=O)[C@H](Cc3ccc(OCC(=O)O)cc3)NC(=O)[C@H](CCN)NC(=O)CSC[C@@H](C(=O)N[C@@H](CCN)C(=O)NCCCCCCCCCCC(=O)O)NC(=O)[C@H](CO)NC(=O)[C@H](C(C)O)NC(=O)[C@H](CC3CCCCC3)NC(=O)[C@H](CCN)NC(=O)[C@@H](CC(C)C)NC(=O)[C@H](C)N(C)C(=O)[C@H](Cc3ccc(OCC(=O)O)cc3)NC(=O)[C@H](Cc3ccc(-c4ccccc4)cc3)NC(=O)[C@H](Cc3ccc(OCC(=O)O)cc3)NC2=O)c1` (stereo partly drawn) [Example 2425] ({CH2CO}-[Dab]Y(Carboxymethyl)D[Phe(3-Me)]Y(Carboxymethyl)[Bip]Y(Carboxymethyl)[NMeA][dL][Dab][Cha][Thr(3ξ)]SC[Dab][Aun]-OH; thioether N-14) was run?
Answer: Its IC50 is 0.0156 µM.

Question: Which IC50 (PE-labeled PD-L1-Ig 20 nM final, Jurkat-hPD-1 cells; read-out: Jurkat HPD1 PDL1 IC50) does the source give for `Cc1cccc(C[C@@H]2NC(=O)[C@H](CC(=O)O)NC(=O)[C@H](Cc3ccc(OCC(=O)O)cc3)NC(=O)[C@H](C(C)O)NC(=O)CSC[C@@H](C(=O)N[C@@H](CCN)C(=O)NCCCCCCCCCCC(=O)O)NC(=O)[C@H](CO)NC(=O)[C@H](Cc3cnc[nH]3)NC(=O)[C@H](CC3CCCCC3)NC(=O)[C@H](CCN)NC(=O)[C@@H](CC(C)C)NC(=O)[C@H](C)N(C)C(=O)[C@H](Cc3ccc(OCC(=O)O)cc3)NC(=O)[C@H](Cc3ccc(-c4ccccc4)cc3)NC(=O)[C@H](Cc3ccc(OCC(=O)O)cc3)NC2=O)c1` (stereo partly drawn) [Example 2426] ({CH2CO}-[Thr(3ξ)]Y(Carboxymethyl)D[Phe(3-Me)]Y(Carboxymethyl)[Bip]Y(Carboxymethyl)[NMeA][dL][Dab][Cha]HSC[Dab][Aun]-OH; thioether N-14) here?
Answer: Its IC50 is 0.036 µM.
